Test results: patent publication US8404644B2, “Agents with angiogenic and wound healing activity” (Meat & Livestock Australia Limited, priority 2007, dated 2013)

Key:
elastase I = target: T1, elastase I (Sus scrofa, UniProt P00772); assay: Chaperone activity: protection of elastase I from heat denaturation; assay type: biochemical; conditions: boiling water bath for 30 seconds
T1 construct: purchased Worthington Biochemical Corporation 2280
Procedure: Bovine crystallin fractions were tested for ability to protect the proteases elastase I, trypsin and chymotrypsin from heat denaturation. Briefly, the proteases were heated in a boiling water bath for 30 seconds in the presence or absence of the crystallin fractions.

rat aortic ring [1] = assay: Rat aortic ring angiogenesis assay (Example 4.3); assay type: cell-based, Lewis rat; conditions: for % of Control: microvessel growth; for activity in promoting angiogenesis: summary of second study
Procedure: Four separate studies were carried out to determine the angiogenic effect of crystallin preparations. Each sample was assayed in triplicate. A positive control (VEGF) and a vehicle control containing PBS was also run in triplicate. […] Preliminary statistical significance was assessed with an independent Student t-test at α<0.05. Graphical representation of averages +/− standard errors were determined.
The first study investigated the angiogenic potential of bovine fractions prepared by gel filtration analysis as described in Example 3.2. As described in that Example, the alpha fraction contained αA and αB crystallin, the β H fraction contained all β crystallins, the β L1 fractions contained a sub-fraction of beta crystallins and a high content of βB2 crystallin and beta B3 crystallin and the beta L2 fraction contained only βB2 crystallin and βA3 crystallin.
The second study investigated the angiogenic potential of purified crystallin proteins. Briefly, βB3 crystallin was prepared by heating (97-99° C. for 3 minutes, supernatant collected by centrifugation) and was essentially homogenous. Alpha A crystallin and αB crystallin samples were prepared by ion exchange chromatography as described above and were also essentially homogenous. The Wound Heal 1-3 preparations were also tested in this study.
The third study investigated the angiogenic potential of ovine crystallin proteins compared to their bovine equivalents. Both bovine and ovine crystallin proteins were purified essentially to homogeneity by RP. HPLC using a C4 column, as described below in Example 5. Homogeneity was confirmed by SDS-PAGE. The effect of elastase I treatment of βB2 crystallin was also investigated by comparing the angiogenic potential of intact βB2 crystallin (i.e. undigested) with elastase I digested βB2 crystallin. Elastase I treatment releases the N-terminal and C-terminal extensions of the crystallin protein leaving a globular protein that is monomeric.
In the final study, ovine βB2 crystallin was tested alone or in combination with indoleamine 2,3-dioxygenase (IDO) and ovine alpha B crystallin was tested alone or in combination with tryptophan dioxygenase (TDO)
Briefly, in each study, a single Lewis rat was euthanised and its aorta transferred to a 15 mL Falcon tube containing 10 mL of MCBD-131 medium and stored on ice. After transferring the aorta to a 92×17 mm petri dish containing 10 mL of ice cold MCDB-131, the outer fatty tissue was removed under an Olympus SZ-60 Dissecting microscope. This was undertaken with fibre optic lamp illumination. The aorta was then cut into sequential rings approximately 2 mm in size. Connective tissue was removed with micro scissors and forceps from the outside of the individual rings. Clean rings were stored in a separate petri dish in sterile MCDB-131 medium. Rings were pre-incubated overnight at 37° C. in an atmosphere of 97% air/3% CO2.
To prepare gel sandwiches, 75 mg of fibrinogen was added to 25 mL MCDB-131 medium and shaken gently on a rocker roller for 5 minutes. 3 ml of MCDB-131/fibrinogen solution was added to a 15 mL Falcon tube, followed by 10 μL of thrombin and quickly mixed. A 0.4 mL volume of this fibrinogen-thrombin solution was added to each well on a 24 well plate, 6 wells at a time. Aortic rings were then placed on the setting gel, pushed gently into the gel and left for 45 minutes. These steps were then repeated so each ring was covered with 0.4 mL of gel. Gels were left to set at room temperature. […] The plate was then placed in incubator (37° C., 97% air/3% CO2).
Culture plate were examined daily for signs of infection (fungal growth or yellowing of media) in the wells using an inverted microscope. The growth of microvessels from their perimeters was also observed. Digital photographs of each well were taken seven days after plating using a Pixera PVC-100C digital camera mounted on an OLYMPUS CK-12 microscope and stored on a Macintosh Computer. […]

rat aortic ring [2] = assay: Rat aortic ring angiogenesis assay (Examples 1 and 2); assay type: cell-based
Procedure: Rat aorta were removed and cleaned of adhering fatty and connective tissues before being cut into rings of approximately 3 mm width. Fibrinogen was applied to the bottoms of wells of multi-well culture plates and allowed to gel by thrombin action. An aortic ring was then layered on the top of each gel and a further layer of fibrin placed on this. The fibrinogen was prepared in MCDB131 medium (Sigma, United States) supplemented with antibiotics. The double layer of fibrin was then overlaid with MCDB131 medium containing the test extracts. Control wells contained HBSS. Fumagillin (20 μg/mL) was assayed in triplicate as a negative control.
The gels were incubated at 37° C. in an atmosphere of 3% CO2/97% air. The rings were examined using an inverted microscope and the growth of microvessels from their perimeters is observed. Digital pictures were taken of these every 2 days and the extent of microvessel growth relative to the size of the ring was determined using National Institute of Health (NIH) Image software (National Institutes of Health (NIH), Rockville Pike, Bethesda, Md., United States, and the rate of growth of microvessels was then determined for each well. Each test extract was assayed in triplicate and the mean growth rate was calculated.
Additional analysis of several of the MLA008E2 fractions was performed using the rat aortic ring assay (in vitro angiogenesis) as described in Example 1.8 and a rat dorsal flap assay (wound healing assay).

[3] = test system: bovine aorta endothelial cells; assay: Endothelial cell migration assay; assay type: cell-based; conditions: compared to the background level of migration (cells and media); 22±1 hour
Procedure: Bovine aorta where obtained from a local abattoir and clamped at either end. Arterioles were tied off with string. The aorta was washed free of contaminating blood with 2% sucrose solution under sterile conditions. Trypsin was added in PBS buffer and incubated for 30 minutes. The endothelial cell suspension was mixed 1:1 with cell culture media (DMEM containing 20% foetal bovine serum, 2% glutamine and antibiotics). The cells were collected by centrifugation at 960×g for 10 minutes then suspended in media prior to culturing stock cell ampoules. After five cell passages the cells were frozen in 10% DMSO and stored in liquid nitrogen. […] The cells were then harvested for use.
BD Bioscience angiogenesis cell migration assay 24 well plates (BD Bioscience, Franklin Lakes, N.J., United States) were used as per the manufacturers instructions. The migration plate was kept at −18° C. until required. Briefly, bovine aorta endothelial cells were prepared in DMEM and HEPES pH 7.2 at 2×10^5 cells/mL. A 250 μL volume of the cell suspension (5×10^4 cells) were added to the top chamber. Immediately, 750 μL was added to each of the bottom wells using the sample port to the bottom wells. Samples were prepared by adding the glycoprotein extract to 1 mL of DMEM containing HEPES. The plate was incubated for 22±1 hour at 37° C., 5% CO2 atmosphere. […]

T1 sequence (P00772 27-266): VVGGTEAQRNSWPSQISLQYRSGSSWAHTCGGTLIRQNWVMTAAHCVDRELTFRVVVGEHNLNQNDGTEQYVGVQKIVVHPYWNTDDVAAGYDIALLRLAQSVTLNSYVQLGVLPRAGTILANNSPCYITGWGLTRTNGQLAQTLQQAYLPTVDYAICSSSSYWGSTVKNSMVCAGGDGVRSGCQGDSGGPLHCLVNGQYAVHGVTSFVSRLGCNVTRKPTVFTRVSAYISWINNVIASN

Compound: Bovine αA crystallin: bovine alpha A crystallin prepared by ion exchange chromatography, essentially homogenous
- chaperone activity: protection of elastase I from heat denaturation (in words) (elastase I): able to protect elastase I from heat inactivation
- increase in microvessel growth (stimulatory) (rat aortic ring [1]; second study, 200 μg/mL): 8.26%
- % of Control (rat aortic ring [1]; second study, 200 μg/mL): 108.26%
- angiogenic activity (in words) (rat aortic ring [1]; summary of second and third study): angiogenic
- activity in promoting angiogenesis (rat aortic ring [1]): 108%

Compound: CO[C@@H]1[C@H](OC(=O)/C=C/C=C/C=C/C=C/C(=O)O)CC[C@]2(CO2)[C@H]1[C@@]1(C)O[C@@H]1CC=C(C)C [Fumagillin]
- Rate of microvessel growth (rat aortic ring [2]; 20 μg/ml): 9.462 ± 1.67
- Mean growth rate (rat aortic ring [2]; batch 1, 20 μg/ml): 9.5 ± 1.7
- Mean growth rate (rat aortic ring [2]; batch 2, 40 μg/ml): 5.4 ± 1.6
- Stimulation/inhibition (rat aortic ring [2]; inhibition vs Control (HBSS), 20 μg/ml): 24.07% inhibition
- Percentage stimulation or inhibition (rat aortic ring [2]; inhibition, batch 1, 20 μg/ml): 24.1% inhibition
- Percentage stimulation or inhibition (rat aortic ring [2]; inhibition, batch 2, 40 μg/ml): 57.7% inhibition

Compound: Indoleamine 2,3-dioxygenase IDO: tryptophan hydrolyzing enzyme
- angiogenic activity (in words) (rat aortic ring [1]; forth study, 100 μg/mL): stimulatory
- % of Control (rat aortic ring [1]; forth study, 100 μg/mL): 116.4%

Compound: VEGF [reference compound]
- Mean growth rate (rat aortic ring [2]; batch 2, 40 μg/ml): 13.9 ± 0.2
- Percentage stimulation or inhibition (rat aortic ring [2]; stimulation, batch 2, 40 μg/ml): 11.1% stimulation
- inhibition of microvessel growth (rat aortic ring [1]; first study, 30 μg/ml, not statistically significant): 15.08%
- % of Control (rat aortic ring [1]; forth study, 50 μg/mL): 113.7%
- angiogenic effect on microvessel growth (in words) (rat aortic ring [1]; second study, VEGF 50 μg/mL, test samples 200 μg/mL): slight stimulation
- % of Control (rat aortic ring [1]; second study, 50 μg/mL): 107.08%
- activity in promoting angiogenesis (rat aortic ring [1]; 50 ng/mL): 107%
- % of Control (rat aortic ring [1]; third study, 50 μg/mL): 113.7%

Compound: N[C@@H](Cc1c[nH]c2ccccc12)C(=O)O [Tryptophan, tryptophan]
- endothelial cell migration (in words) [3]: able to promote migration of the cells
